Laboratory results from the NIST ThermoML archive (doi:10.1016/j.fluid.2013.09.022).
Numbers after ± are expanded uncertainties.

Assay: xn = mol fraction of the nth substance listed
Conditions: Gas, isochoric method

F/C=C/C(F)(F)F [trans-1,3,3,3-tetrafluoropropene] + O=C=O
Conditions	molar volume [m3/mol]
282.98 K, 1378 kPa, x2 = 0.859	0.00149 ± 1e-05
292.75 K, 1458.4 kPa, x2 = 0.859	0.001491 ± 1e-05
293.11 K, 1207.5 kPa, x2 = 0.733	0.001776 ± 1e-05
293.15 K, 1053.5 kPa, x2 = 0.642	0.002057 ± 1e-05
302.65 K, 741.2 kPa, x2 = 0.254	0.002778 ± 1e-05
302.78 K, 834.7 kPa, x2 = 0.331	0.002626 ± 1e-05
302.95 K, 1530.5 kPa, x2 = 0.859	0.001492 ± 1e-05
303.12 K, 1086.9 kPa, x2 = 0.563	0.002066 ± 1e-05
303.12 K, 1281.1 kPa, x2 = 0.733	0.001777 ± 1e-05
303.15 K, 934.1 kPa, x2 = 0.459	0.002372 ± 1e-05
303.19 K, 1105.4 kPa, x2 = 0.642	0.002058 ± 1e-05
313.09 K, 773.6 kPa, x2 = 0.155	0.002926 ± 1e-05
313.1 K, 879.9 kPa, x2 = 0.331	0.002627 ± 1e-05
313.1 K, 1598.3 kPa, x2 = 0.859	0.001492 ± 1e-05
313.11 K, 824.7 kPa, x2 = 0.254	0.00278 ± 1e-05
313.11 K, 979 kPa, x2 = 0.459	0.002373 ± 1e-05
313.14 K, 1137.1 kPa, x2 = 0.563	0.002067 ± 1e-05
313.15 K, 1337.5 kPa, x2 = 0.733	0.001778 ± 1e-05
313.18 K, 1155.7 kPa, x2 = 0.642	0.002059 ± 1e-05
323.03 K, 1183.9 kPa, x2 = 0.563	0.002067 ± 1e-05
323.04 K, 918.1 kPa, x2 = 0.331	0.002628 ± 1e-05
323.06 K, 861.2 kPa, x2 = 0.254	0.002781 ± 1e-05
323.06 K, 1392.7 kPa, x2 = 0.733	0.001778 ± 1e-05
323.07 K, 808.6 kPa, x2 = 0.155	0.002928 ± 1e-05
323.07 K, 1661.1 kPa, x2 = 0.859	0.001493 ± 1e-05
323.09 K, 1019.8 kPa, x2 = 0.459	0.002374 ± 1e-05
323.12 K, 1201.6 kPa, x2 = 0.642	0.00206 ± 1e-05
332.99 K, 1059.7 kPa, x2 = 0.459	0.002375 ± 1e-05
333.02 K, 897.5 kPa, x2 = 0.254	0.002782 ± 1e-05
333.03 K, 1246.4 kPa, x2 = 0.642	0.002061 ± 1e-05
333.04 K, 1723.3 kPa, x2 = 0.859	0.001494 ± 1e-05
333.05 K, 843.8 kPa, x2 = 0.155	0.002929 ± 1e-05
333.07 K, 955.4 kPa, x2 = 0.331	0.002629 ± 1e-05
333.08 K, 1445.3 kPa, x2 = 0.733	0.001779 ± 1e-05
333.15 K, 1230.3 kPa, x2 = 0.563	0.002068 ± 1e-05
342.9 K, 1274.8 kPa, x2 = 0.563	0.002069 ± 1e-05
342.93 K, 1098.9 kPa, x2 = 0.459	0.002376 ± 1e-05
343.01 K, 1497.2 kPa, x2 = 0.733	0.00178 ± 1e-05
343.02 K, 991.5 kPa, x2 = 0.331	0.00263 ± 1e-05
343.05 K, 877.3 kPa, x2 = 0.155	0.00293 ± 1e-05
343.06 K, 1785.7 kPa, x2 = 0.859	0.001494 ± 1e-05
343.07 K, 1291.7 kPa, x2 = 0.642	0.002062 ± 1e-05
343.2 K, 933 kPa, x2 = 0.254	0.002783 ± 1e-05
352.96 K, 1140 kPa, x2 = 0.459	0.002377 ± 1e-05
353.01 K, 1320.4 kPa, x2 = 0.563	0.00207 ± 1e-05
353.02 K, 910 kPa, x2 = 0.155	0.002931 ± 1e-05
353.03 K, 1336.3 kPa, x2 = 0.642	0.002062 ± 1e-05
353.03 K, 1847.2 kPa, x2 = 0.859	0.001495 ± 1e-05
353.1 K, 1027.7 kPa, x2 = 0.331	0.002631 ± 1e-05
353.12 K, 967.3 kPa, x2 = 0.254	0.002784 ± 1e-05
353.14 K, 1549.7 kPa, x2 = 0.733	0.001781 ± 1e-05
362.89 K, 1178.4 kPa, x2 = 0.459	0.002378 ± 1e-05
362.94 K, 1380.5 kPa, x2 = 0.642	0.002063 ± 1e-05
363.03 K, 1000.8 kPa, x2 = 0.254	0.002786 ± 1e-05
363.05 K, 1365.6 kPa, x2 = 0.563	0.002071 ± 1e-05
363.08 K, 942.8 kPa, x2 = 0.155	0.002933 ± 1e-05
363.08 K, 1908.8 kPa, x2 = 0.859	0.001496 ± 1e-05
363.12 K, 1601.3 kPa, x2 = 0.733	0.001781 ± 1e-05
363.14 K, 1063.4 kPa, x2 = 0.331	0.002632 ± 1e-05
